This is an account of results in patent US9487510B2, “Substituted heterocyclic acetamides as kappa opioid receptor (KOR) agonists” (Dr. Reddy's Laboratories Ltd., priority 2012, dated 2016).

The target in the test is human KOR receptor (Homo sapiens, UniProt P41145). Nature of the test: IP-One HTRF assay, potency of KOR agonists, dose-response in transiently transfected COS-7 cells. Format: cell-based.

Where only a bound is given, the exact number is not on record here.

Sequence of human KOR receptor (P41145 whole entry): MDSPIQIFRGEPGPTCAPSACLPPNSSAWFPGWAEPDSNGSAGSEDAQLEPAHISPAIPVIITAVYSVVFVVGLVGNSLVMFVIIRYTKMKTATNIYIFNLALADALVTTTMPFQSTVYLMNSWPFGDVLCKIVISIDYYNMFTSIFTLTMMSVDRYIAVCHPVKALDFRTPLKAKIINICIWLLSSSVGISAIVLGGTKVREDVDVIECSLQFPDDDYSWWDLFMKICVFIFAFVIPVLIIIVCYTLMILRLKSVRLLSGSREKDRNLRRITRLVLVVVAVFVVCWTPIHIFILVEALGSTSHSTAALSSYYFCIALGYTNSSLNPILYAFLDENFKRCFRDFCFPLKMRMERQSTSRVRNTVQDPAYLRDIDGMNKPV

For `CN(C(=O)Cc1ccc2c(c1)N(C)S(=O)(=O)C2)[C@H](CN1CC[C@H](O)C1)c1cccc(OCC(=O)O)c1` [Example 80, 2-(3-((S)-2-((S)-3-hydroxypyrrolidin-1-yl)-1-(N-methyl-2-(1-methyl-2,2-dioxido-1,3-dihydrobenzo[c]isothiazol-6-yl)acetamido)ethyl)phenoxy)acetic acid], the EC50 (in general, the concentration giving half of the maximal effect) was at most 50 nM. For `CN(C(=O)Cc1ccc2c(c1)NC(=O)C2)[C@H](CN1CC[C@H](O)C1)c1cccc(-c2nccn2C)c1` [Example 213, N-((S)-2-((S)-3-hydroxypyrrolidin-1-yl)-1-(3-(1-methyl-1H-imidazol-2-yl)phenyl)ethyl)-N-methyl-2-(2-oxoindolin-6-yl)acetamide], the concentration giving a half-maximal response (EC50) was at most 50 nM.

The compound `O=C1CS(=O)(=O)c2ccc(CC(=O)N(C3CC3)[C@H](CN3CC[C@H](O)C3)c3cccc(OC(F)(F)F)c3)cc2N1` [Example 139] came in with an EC50 of at most 50 nM. Take `CN(C(=O)Cc1ccc2c(c1)CC(=O)N2)C(CN1CCC(O)C1)c1ccccc1` (stereo in doubt) [Example 161, N-((S)-2-((S)-3-hydroxypyrrolidin-1-yl)-1-phenylethyl)-N-methyl-2-(2-oxoindolin-5-yl)acetamide]: the EC50 is at most 50 nM. The result for `CN(C(=O)Cc1ccc2c(c1)NC(=O)C2)[C@H](CN1CC[C@H](F)C1)c1cccc(C#N)c1` [Example 25, N-((S)-1-(3-cyanophenyl)-2-((S)-3-fluoropyrrolidin-1-yl)ethyl)-N-methyl-2-(2-oxoindolin-6-yl)acetamide] reads at most 50 nM. The result for `CN(C(=O)Cc1ccc2oc(=O)n(Cc3ccc(C#N)cc3)c2c1)[C@H](CN1CC[C@H](O)C1)c1ccccc1` [Example 75, 2-(3-(4-cyanobenzyl)-2-oxo-2,3-dihydrobenzo[d]oxazol-5-yl)-N-((S)-2-((S)-3-hydroxypyrrolidin-1-yl)-1-phenylethyl)-N-methylacetamide] reads at most 50 nM; that for `CN(C(=O)Cc1ccc2c(c1)N(Cc1ccccc1)S(=O)(=O)C2)[C@H](CN1CC[C@H](O)C1)c1ccccc1` [Example 135, 2-(1-benzyl-2,2-dioxido-1,3-dihydrobenzo[c]isothiazol-6-yl)-N-((S)-2-((S)-3-hydroxypyrrolidin-1-yl)-1-phenylethyl)-N-methylacetamide], at most 50 nM. Consider `O=C(Cc1ccc2sc(=S)[nH]c2c1)N[C@H](CN1CC[C@H](O)C1)c1ccccc1` [Example 118, N-((S)-2-((S)-3-hydroxypyrrolidin-1-yl)-1-phenylethyl)-2-(2-thioxo-2,3-dihydrobenzo[d]thiazol-5-yl)acetamide], for which the EC50 is at most 50 nM. The result for `CN(C(=O)Cc1ccc2c(c1)NC(=O)CS2)[C@H](CN1CC[C@H](O)C1)c1ccccc1` [Example 7, N-((S)-2-((S)-3-hydroxypyrrolidin-1-yl)-1-phenylethyl)-N-methyl-2-(3-oxo-3,4-dihydro-2H-benzo[b][1,4]thiazin-6-yl)acetamide] reads at most 50 nM; that for `O=C1COc2ccc(CC(=O)N[C@H](CN3CCCC3)c3ccccc3)cc2N1` [Example 114, (S)-2-(3-oxo-3,4-dihydro-2H-benzo[b][1,4]oxazin-6-yl)-N-(1-phenyl-2-(pyrrolidin-1-yl)ethyl)acetamide], at most 50 nM. `CN(C(=O)Cc1ccc2c(c1)NC(=O)C2)[C@H](CN1CC[C@H](O)C1)c1cccc(OCc2nn[nH]n2)c1` [Example 112, N-((S)-1-(3-((2H-tetrazol-5-yl)methoxy)phenyl)-2-((S)-3-hydroxypyrrolidin-1-yl)ethyl)-N-methyl-2-(2-oxoindolin-6-yl)acetamide] showed a concentration giving a half-maximal response (EC50) of 51 to 100 nM. The result for `CN(C)C(=O)c1cccc([C@@H](CN2CC[C@H](O)C2)N(C)C(=O)Cc2ccc3c(c2)NS(=O)(=O)C3)c1` [Example 210, 3-((S)-1-(2-(2,2-dioxido-1,3-dihydrobenzo[c]isothiazol-6-yl)-N-methylacetamido)-2-((S)-3-hydroxypyrrolidin-1-yl)ethyl)-N,N-dimethylbenzamide] reads at most 50 nM; that for `CN(C(=O)Cc1ccc2oc(=O)[nH]c2c1)C(CN1CC[C@H](O)C1)c1cccc(OCc2nn[nH]n2)c1` (stereo in doubt) [Example 105, (R)-N-(1-(3-((2H-tetrazol-5-yl)methoxy)phenyl)-2-(3-hydroxypyrrolidin-1-yl)ethyl)-N-methyl-2-(2-oxo-2,3-dihydrobenzo[d]oxazol-5-yl)acetamide], at most 50 nM.

Take `O=C1Cc2cc(CC(=O)N[C@H](CN3CC[C@H](O)C3)c3ccccc3)ccc2N1` [Example 157, N-((S)-2-((S)-3-hydroxypyrrolidin-1-yl)-1-phenylethyl)-2-(2-oxoindolin-5yl)acetamide]: the EC50 is at most 50 nM. The result for `CN(C(=O)Cc1ccc2c(c1)NC(=O)CO2)[C@H](CN1CC[C@H](O)C1)c1cccc(OCC(N)=O)c1` [Example 173, N-((S)-1-(3-(2-amino-2-oxoethoxy)phenyl)-2-((S)-3-hydroxypyrrolidin-1-yl)ethyl)-N-methyl-2-(3-oxo-3,4-dihydro-2H-benzo[b][1,4]oxazin-6-yl)acetamide] reads at most 50 nM. With `CCCN(C(=O)Cc1ccc2c(c1)NC(=O)CS2(=O)=O)[C@H](CN1CC[C@H](O)C1)c1cccc(OC(F)(F)F)c1` [Example 137, 2-(1,1-dioxido-3-oxo-3,4-dihydro-2H-benzo[b][1,4]thiazin-6-yl)-N-((S)-2-((S)-3-hydroxypyrrolidin-1-yl)-1-(3-(trifluoromethoxy)phenyl)ethyl)-N-propylacetamide] the figure was at most 50 nM; with `CN(C(=O)Cc1ccc2oc(=O)n(Cc3cccc(C#N)c3)c2c1)[C@H](CN1CC[C@H](O)C1)c1ccccc1` [Example 66, 2-(3-(3-cyanobenzyl)-2-oxo-2,3-dihydrobenzo[d]oxazol-5-yl)-N-((S)-2-((S)-3-hydroxypyrrolidin-1-yl)-1-phenylethyl)-N-methylacetamide], at most 50 nM; with `O=C1CSc2ccc(CC(=O)N[C@H](CN3CC[C@H](O)C3)c3ccccc3)cc2N1` [Example 128, N-((S)-2-((S)-3-hydroxypyrrolidin-1-yl)-1-phenylethyl)-2-(3-oxo-3,4-dihydro-2H-benzo[b][1,4]thiazin-6-yl)acetamide], at most 50 nM. `CN(C(=O)Cc1ccc2c(c1)NC(=O)C(C)(C)S2)[C@H](CN1CC[C@H](O)C1)c1cccc(OC(F)(F)F)c1` [Example 143, 2-(2,2-dimethyl-3-oxo-3,4-dihydro-2H-benzo[b][1,4]thiazin-6-yl)-N-((S)-2-((S)-3-hydroxypyrrolidin-1-yl)-1-(3-(trifluoromethoxy)phenyl)ethyl)-N-methylacetamide]: the concentration giving a half-maximal response (EC50) is at most 50 nM. `CN(C(=O)Cc1ccc2sc(=O)[nH]c2c1)[C@H](CN1CC[C@H](O)C1)c1cccc(-c2nccs2)c1` [Example 192, N-((S)-2-((S)-3-hydroxypyrrolidin-1-yl)-1-(3-(thiazol-2-yl)phenyl)ethyl)-N-methyl-2-(2-oxo-2,3-dihydrobenzo[d]thiazol-5-yl)acetamide] had an EC50 of 101 to 1000 nM. Consider `CN(C(=O)Cc1ccc2c(c1)NC(=O)C2)[C@H](CN1CC[C@H](O)C1)c1cccc(OCC(N)=O)c1` [Example 26, N-((S)-1-(3-(2-amino-2-oxoethoxy)phenyl)-2-((S)-3-hydroxypyrrolidin-1-yl)ethyl)-N-methyl-2-(2-oxoindolin-6-yl)acetamide], for which the concentration giving a half-maximal response (EC50) is at most 50 nM. With `CC(C)N(C(=O)Cc1ccc2c(c1)NC(=O)CS2(=O)=O)[C@H](CN1CC[C@H](O)C1)c1cccc(OC(F)(F)F)c1` [Example 138, 2-(1,1-dioxido-3-oxo-3,4-dihydro-2H-benzo[b][1,4]thiazin-6-yl)-N-((S)-2-((S)-3-hydroxypyrrolidin-1-yl)-1-(3-(trifluoromethoxy)phenyl)ethyl)-N-isopropylacetamide] the figure was 51 to 100 nM; with `O=C(Cc1ccc2sc(=O)[nH]c2c1)N[C@H](CN1CCCC1)c1ccccc1` [Example 4, (S)-2-(2-oxo-2,3-dihydrobenzo[d]thiazol-5-yl)-N-(1-phenyl-2-(pyrrolidin-1-yl)ethyl)acetamide], 51 to 100 nM; with `CN(C(=O)Cc1ccc2c(c1)NC(=O)CO2)[C@H](CN1CC[C@H](O)C1)c1cccc(C(=O)O)c1` [Example 155, 3-((S)-2-((S)-3-hydroxypyrrolidin-1-yl)-1-(N-methyl-2-(3-oxo-3,4-dihydro-2H-benzo[b][1,4]oxazin-6-yl)acetamido)ethyl)benzoic acid], at most 50 nM. In turn, `CN(C(=O)Cc1ccc2c(c1)NC(=O)C2)[C@H](CN1CC[C@H](O)C1)c1cccc(C(=O)NCC(F)(F)F)c1` [Example 38, 3-((S)-2-((S)-3-hydroxypyrrolidin-1-yl)-1-(N-methyl-2-(2-oxoindolin-6-yl)acetamido)ethyl)-N-(2,2,2-trifluoroethyl)benzamide] registered an EC50 of at most 50 nM.

Compound `CN(C(=O)Cc1ccc2oc(=O)[nH]c2c1)C(CN1CC[C@H](O)C1)c1cccc(OCC#N)c1` (mixture of isomers) [Example 76, N-(1-(3-(cyanomethoxy)phenyl)-2-(3-hydroxypyrrolidin-1-yl)ethyl)-N-methyl-2-(2-oxo-2,3-dihydrobenzo[d]oxazol-5-yl)acetamide] came in with a concentration giving a half-maximal response (EC50) of at most 50 nM.

For `CN(C(=O)Cc1ccc2c(c1)NC(=O)C2)[C@H](CN1CC[C@H](O)C1)c1cccc(OCC(=O)O)c1` [Example 159, 2-(3-((S)-2-((S)-3-hydroxypyrrolidin-1-yl)-1-(N-methyl-2-(2-oxoindolin-6-yl)acetamido)ethyl)phenoxy)acetic acid], the EC50 was at most 50 nM. The result for `CN(C(=O)Cc1ccc2c(c1)NC(=O)C2)[C@H](CN1CC[C@H](F)C1)c1cccc(OCC(N)=O)c1` [Example 30, N-((S)-1-(3-(2-amino-2-oxoethoxy)phenyl)-2-((S)-3-fluoropyrrolidin-1-yl)ethyl)-N-methyl-2-(2-oxoindolin-6-yl)acetamide] reads at least 1000 nM; that for `CN(C(=O)Cc1ccc2c(c1)NS(=O)(=O)C2)[C@H](CN1CC[C@H](O)C1)c1cccc(-c2ncc[nH]2)c1` [Example 202, N-((S)-1-(3-(1H-imidazol-2-yl)phenyl)-2-((S)-3-hydroxypyrrolidin-1-yl)ethyl)-2-(2,2-dioxido-1,3-dihydrobenzo[c]isothiazol-6-yl)-N-methylacetamide], 51 to 100 nM.
